Results taken from patent US12357601B2, “Composition for inhibiting growth of bacterium having menaquinone synthesis pathway through futalosine or futalosine derivative” (NOSTER INC., priority 2017, dated 2025).

Experiments:
[1] = tested on: Helicobacter pylori SS1 strain, TN2GF4 strain, ATCC43579 strain, NCTC11637 strain, TY281 strain, TY1345 strain; test: Proliferation inhibitory effect (in vitro), static culture 3 days, colony count; type: cell-based; conditions: fatty acid 200 μM or 1000 μM, 3 days; six strains; compared with linoleic acid
Description: Helicobacter pylori SS1 strain, TN2GF4 strain, ATCC43579 strain, NCTC11637 strain, TY281 strain, TY1345 strain were each inoculated to a 6-well plate containing 3 mL of a liquid medium (Brucella broth added with 10% FCS), and fatty acid (200 μM or 1000 μM) and menaquinone (MK-4) 100 μg/mL were added. After static culture for 3 days at temperature 37° C., microaerobic conditions (5% 02, 10% 002, 85% N2), the culture medium was applied on a Helicobacter agar plate, cultured for 3 days and the resulting colonies were counted (FIG. 1-1 A: SS1 strain, FIG. 1-2 B: TN2GF4 strain, FIG. 1-3 C: ATCC43579 strain, FIG. 1-4 D: NCTC11637 strain, FIG. 1-5 E: TY281 strain, FIG. 1-6 F: TY1345 strain. Item C: control (no addition), Item 1: HYA addition, Item 2: HYA and menaquinone addition, Item 3: linoleic acid addition, Item 4: linoleic acid and menaquinone addition).

[2] = tested on: Campylobacter jejuni ATCC33560 strain; test: Proliferation inhibitory effect (in vitro) on Campylobacter jejuni, absorbance and colony count; type: cell-based; conditions: 100, 200, 400 μM, 24 hr; concentration dependent; strong compared to linoleic acid
[3] = tested on: Helicobacter pylori SS1 strain or TN2GF4 strain; test: Proliferation inhibitory effect (in vivo) of HYA on Helicobacter pylori, number of bacteria in gastric mucosa; design: species or system C57BL/6 female mouse; conditions: 200 μM in water from 1 week before infection; 2 weeks from final infection
Description: A 5-week-old C57BL/6 female mouse was orally infected 3 times with Helicobacter pylori SS1 strain or TN2GF4 strain (1-5×10^8 CFU) every other day and dissected at 2 weeks from the final infection day, and the number of bacteria in the gastric mucosa was counted. Water added with HYA or linoleic acid (200 μM) was given to the mice from 1 week before infection (FIG. 4-1 A: SS1 strain, FIG. 4-2 B: TN2GF4 strain). A 5-week-old C57BL/6 female mouse was orally infected only once with a stomach suspension of Helicobacter suis TKY strain or SNTW101 strain-infected mouse and dissected 2 weeks later, and the number of bacteria in the gastric mucosa was counted. Water added with HYA (200 μM) was given to the mouse from one week before the infection (FIG. 4-3 C). […] The measurement of the number of Helicobacter suis bacteria in the stomach of the infected mouse was performed as follows.

[4] = tested on: Campylobacter coli ATCC33559 strain; test: Proliferation inhibitory effect (in vitro) on Campylobacter coli, absorbance and colony count; type: cell-based; conditions: 100, 200, 400 μM, 24 hr; concentration dependent; strong compared to linoleic acid
[5] = tested on: Helicobacter suis TKY strain or SNTW101 strain; test: Proliferation inhibitory effect (in vivo) of HYA on Helicobacter suis, real-time PCR quantification, 2 weeks after infection; design: species or system C57BL/6 female mouse; conditions: 200 μM in water from one week before infection; 2 weeks later
Description: A 5-week-old C57BL/6 female mouse was orally infected 3 times with Helicobacter pylori SS1 strain or TN2GF4 strain (1-5×10^8 CFU) every other day and dissected at 2 weeks from the final infection day, and the number of bacteria in the gastric mucosa was counted. Water added with HYA or linoleic acid (200 μM) was given to the mice from 1 week before infection (FIG. 4-1 A: SS1 strain, FIG. 4-2 B: TN2GF4 strain). A 5-week-old C57BL/6 female mouse was orally infected only once with a stomach suspension of Helicobacter suis TKY strain or SNTW101 strain-infected mouse and dissected 2 weeks later, and the number of bacteria in the gastric mucosa was counted. Water added with HYA (200 μM) was given to the mouse from one week before the infection (FIG. 4-3 C). […]
DNA was prepared from a part of the stomach tissue by using DNeasy Blood & Tissue Kit (Qiagen) and real-time PCR (model: CFX96 (Bio-Rad)) was performed. As the primer for Helicobacter suis quantification, the following was used by reference to Diagn. […]
The following were used as the primers for β-actin quantification of the mouse by reference to J. Clin. Microbiol. […]
For quantification by real-time PCR, iQ™ SYBR Green Supermix was used. […]
Thereafter, the temperature was increased by 0.5° C. every seconds from 65° C. to 95° C. and the fluorescence was measured. […]

CD19 and CD20 expression = test: Gastric MALT lymphoma model: CD19, CD20 expression in gastric mucosa (real-time RT-PCR); type: in vivo, C57BL/6 female mouse; conditions: 200 μM in water; 6 months after infection with Helicobacter suis TKY strain; relative to GAPDH
Description: Helicobacter suis is suspected to be the cause of the onset of gastric MALT lymphoma. A 5-week-old C57BL/6 female mouse was orally infected only once with a stomach suspension of Helicobacter suis TKY strain-infected mouse and dissected 6 months after the infection, and the number of bacteria in the gastric mucosa was counted according to the method described in Example 5. Water added with HYA (200 μM) was given to the mouse from one week before the infection.
CD19 and CD20 are cell surface markers for B-cell lymphoma. Using real-time reverse transcription PCR (real-time RT-PCR), the expression levels of CD19 and CD20 were measured. Using NucleoSpin (registered trade mark) RNA Kit (Takara Bio Inc.), RNA was prepared from mouse gastric mucosa. Using PrimeScript™ RT Reagent Kit (Takara Bio Inc.), cDNA was prepared from RNA. For real-time RT-PCR, KAPA SYBR Fast ROX Low qPCR kit (KAPA BIOSYSTEMS Inc.) and QuantStudio7 Flex Real-time PCR System (Thermo Fisher Scientific Inc.) were used.
The conditions of 2-step real-time RT-PCR were as follows.
The expression level of CD19 or CD20 relative to that of glyceraldehyde-3-phosphate dehydrogenase (GAPDH) was converted to a numerical value and the value was further adjusted to make the average expression of CD19 or CD20 of the non-infection group 1. […]

CCCCC/C=C\CC(O)CCCCCCCCC(=O)O (stereo not drawn) [HYA, 10-hydroxy-cis-12-octadecenoic acid]
proliferation of Helicobacter pylori (colony count) [1]: suppressed proliferation
proliferation of Campylobacter jejuni ATCC33560 strain [2]: inhibited proliferation
proliferation of Helicobacter pylori SS1 strain, TN2GF4 strain (number of bacteria in gastric mucosa) [3]: inhibited proliferation
proliferation of Campylobacter coli ATCC33559 strain [4]: inhibited proliferation
proliferation of Helicobacter suis TKY strain, SNTW101 strain (number of bacteria in gastric mucosa) [5]: inhibited proliferation
CD19 relative expression level, compared to the non-administration group (CD19 and CD20 expression): significantly suppressed
CD20 relative expression level, compared to the non-administration group (CD19 and CD20 expression): significantly suppressed
